Assay results as given in ChEMBL document CHEMBL1158771, “Glaciapyrroles A, B, and C, pyrrolosesquiterpenes from a Streptomyces sp. isolated from an Alaskan marine sediment” (J Nat Prod, 2005).
pIC50: −log10 of the molar value.

Assays:
[1] = tested on: HT-29; assay: Cytotoxicity against human HT-29 cells assessed as reduction of resazurin after 48 hrs by fluorimetry; format: functional, cell-based; details: HT-29, 48 h
[2] = tested on: B16-F10; assay: Cytotoxicity against mouse B16F10 cells assessed as reduction of resazurin after 48 hrs by fluorimetry; format: functional, cell-based; details: B16-F10, 48 h

CC(=C/C(=O)c1ccc[nH]1)/C=C/[C@H](O)[C@@]1(C)CC[C@H](C(C)(C)O)O1 [GLYCIAPYRROLE A]
pIC50 [1]: 3.74
pIC50 [2]: 3.74
